# Measurements as given in article PMC6486608, “A cell-penetrating peptide blocks Toll-like receptor-mediated downstream signaling and ameliorates autoimmune and inflammatory diseases in mice” (Experimental & Molecular Medicine, 2019).
# Ends that are not written are not given here.
# T1: TLR4 TIR domain BB loop peptide (Homo sapiens)
# T1 chain: RDFIPGVAIAA
# How the values were obtained:
# [1] = tested on: TLR4 (HEK-Blue hTLR4 cells); experiment: SEAP activity (NF-κB), HEK-Blue hTLR4, LPS; type: cell-based; details: n ≥ 3; for LPS-induced NF-κB activity (SEAP), peptides in the absence of CPP: not conjugated with CPP
# Experimental: (§1) HEK-Blue-hTLR4 cells were seeded at a density of 2 × 10^5 cells/well and grown overnight in 24-well plates (BD Biosciences). The next day, the supernatant was removed, and the medium was replaced with fresh medium. Aliquots of supernatants (200 µl) from the treated cells were transferred to microcentrifuge tubes and heated for 10 min at 65 °C on a heating block (FINEPCR Co., Seoul, Korea). The supernatants were then transferred into new 96-well plates (BD Biosciences), and SEAP production was quantified using the HEK-Blue detection kit (InvivoGen). HEK-Blue IL-1R cells were seeded at a density of 2 × 10^5 cells/well and grown in 24-well plates (BD Biosciences) overnight, and SEAP production was measured by means of QUANTI-Blue (InvivoGen). Absorbance was measured on a microplate reader (spectrophotometry system; Molecular Devices Inc., Silicon Valley, CA, USA) or a Cytation 5 Cell Imaging Multi-Mode Reader (Bio-Tek Instruments, Winooski, VT, USA) at 620 nm.
# The TLR4-mediated response to LPS leads to a direct interaction between the TIR domains of TIRAP and MyD88, resulting in the subsequent activation of the MyD88-dependent downstream cascade. On the other hand, LPS-induced activation of TLR4 can cause the interaction between the TIR domains of TRAM and TRIF, which thereafter initiates MyD88-independent downstream signaling. Multiple peptides were designed from the TIR domain of TIRAP to possibly target the TIR domain of TLR4. […] The inhibitory effects of the peptides (TIP1 and TIP2) in the absence of CPP were evaluated by measuring the SEAP activity in HEK-Blue hTLR4 cells. […] To evaluate the specific binding of TIP1 to TLRs, we measured the NF-κB activity and protein expression of NF-κB and MAPKs by the SEAP activity assay and western blotting in HEK-Blue IL-1R cells. […]
# [2] = tested on: TLR signaling (RAW 264.7 cells); experiment: TNF-α ELISA, RAW 264.7, peptides not conjugated with CPP; type: cell-based, mouse; details: TIP1 without CPP 12.5, 25, and 50 µM (Fig. 2l); Poly(I:C) 24 h (Supplementary Fig. 1c)
# Experimental: RAW 264.7, THP1, and mBMDM cells were seeded at a density of 2 × 10^5 cells/well in 96-well plates (BD Biosciences) or at 5 × 10^5 cells/well in 24-well plates (BD Biosciences) and were grown overnight. After 24 h of treatment, IFN-β secretion was measured by means of the LEGEND MAX Mouse IFN-β precoated ELISA Kit (BioLegend), IL-6 secretion was assessed by a Mouse IL-6 ELISA MAX Deluxe (BioLegend) or Mouse IL-6 Platinum ELISA (eBioscience), TNF-α production was assessed using the Mouse TNF alpha ELISA Ready-SET-Go! kit (eBioscience), and the IL-1β cytokine level was measured with the Mouse or Human IL-1β ELISA Ready-SET-Go! kit (eBioscience). hBMNCs were seeded at a density of 4 × 10^4/well in 96-well plates (BD Biosciences) and then grown overnight. After 24 h of treatment, the secretion levels of IL-6 and TNF-α were assessed using Human IL-6 ELISA MAX Deluxe (BioLegend) and Human TNF alpha ELISA MAX Deluxe (BioLegend), respectively. The plates were then analyzed on a microplate spectrophotometer system (Molecular Devices) at the appropriate wavelength.
# Fig. 2 Inhibitory effects of TIP1 on TLR signaling pathways. a Cell viability was measured by the MTT assay upon the treatment of RAW 264.7 cells with various concentrations of TIP1 (12.5, 25, or 50 µM) for 24 h. […] The secretion of IFN-β was measured by an ELISA. q hPBMCs were treated with TIP1 in the presence or absence of LPS. […]
# [3] = tested on: IL-1R (HEK-Blue IL-1R cells); experiment: SEAP activity (NF-κB), HEK-Blue IL-1R, IL-1β; type: cell-based; details: peptide 1 h before IL-1β (300 pg/ml), 24 h; n ≥ 3
# Experimental: as §1
# The TLR4-mediated response to LPS leads to a direct interaction between the TIR domains of TIRAP and MyD88, resulting in the subsequent activation of the MyD88-dependent downstream cascade. […] The inhibitory effects of the peptides (TIP1 and TIP2) in the absence of CPP were evaluated by measuring the SEAP activity in HEK-Blue hTLR4 cells. […]
# [4] = target: T1, TLR4 TIR domain BB loop peptide; experiment: SPR
Kd [4] [µM],Molecule,"LPS-induced NF-κB activity (SEAP), peptides in the absence of CPP [1]",inhibitory effect on TNF-α secretion after removal of CPP [2],"LPS-induced SEAP activity (NF-κB) ([1]; CPP-conjugated peptide, 12.5 to 50 μM, peptide 1 h before LPS, 24 h)",IL-1β-induced NF-κB activity (SEAP) [3]
–,"SHCRVLLI [TIP1 without CPP, TIP1 peptide not conjugated with CPP]",neither peptide significantly inhibited NF-κB activity,loss of the inhibitory effect,–,–
–,"TIPLLS [TIP2 without CPP, TIP2 peptide not conjugated with CPP]",neither peptide significantly inhibited NF-κB activity,loss of the inhibitory effect,–,–
–,"TIPLLS [TIP2, TIPLLS from the TIR domain of TIRAP, conjugated in tandem to a cell-penetrating peptide (…) at N terminus]",–,–,did not hinder LPS-induced NF-κB activity,did not exert any significant inhibitory effects
40.2,RQIKIWFQNRRMKWKKSHCRVLLI (also: biotinylated and immobilized) [TIP1 (TIRAP TIR-derived decoy peptide with N-terminal antennapedia CPP)],–,–,–,–
